In PMC5784158, “New 2-Aryl-9-methyl-β-carbolinium salts as Potential Acetylcholinesterase Inhibitor agents: Synthesis, Bioactivity and Structure–Activity Relationship” (Scientific Reports, 2018):
Where two headings read alike, the source gives them in different places.

Molecular target: AChE (Musca domestica, UniProt Q7YWJ9)
Assay: biochemical
Format: biochemical, fly
Details: for Inhibition rate (%): test concentration of the compound 10 μM
Description: AChE (E.C. 3.1.1.7) (BR, 200 u/mg) from fly’s head and BuChE (E.C. 3.1.1.8) (BR, 20 u/mg) from horse serum were purchased from Shanghai Yuanye biological technology Co. Ltd (Shanghai, China).
The inhibitory activities of the compounds against AChE were evaluated according to Ellman’s coupled enzyme assay[47] with the following modifications. 90 μL potassium phosphate buffer (PBS, 0.1 M, pH 7.4), 10 μL the solution of 2 units/mL AChE in 0.1 M PBS (pH 7.4) and 10 μL the solution of 200 μM test compounds in the mixed solution of methanol-PBS (pH 7.4) (1:9, V/V) were added to each well of a 96-well plate. The methanol-PBS solution was used as a blank control. After incubation at room temperature for 10 min, 60 μL the solution of 10 mM DTNB in PBS was added into each the well. The plate was placed on crushed ices and cooled for 20 min. To each the well was added 30 μL the solution of 7.5 mM ATCh in PBS (pH 7.4). […] Each test was performed in triplicate. Inhibition rates of the enzyme were calculated relative to a control sample. The inhibitory activities against BuChE were measured as described above for AChE, using 0.7 unit/mL BuChE and 4 mM BuTCh instead of AChE and ATCh as the enzyme and substrate, respectively.
The probit value of the average inhibition rate for each test concentration and the corresponding lg[concentration] were used to establish enzyme inhibition regression equation by the linear least-square fitting method. IC50 values were calculated from the equations.

[1] = Estimated values based on the results in Table 1 (inhibition rate at 10 μM), read-out: IC50 AChE, estimated values

AChE, sequence (Q7YWJ9 81-659): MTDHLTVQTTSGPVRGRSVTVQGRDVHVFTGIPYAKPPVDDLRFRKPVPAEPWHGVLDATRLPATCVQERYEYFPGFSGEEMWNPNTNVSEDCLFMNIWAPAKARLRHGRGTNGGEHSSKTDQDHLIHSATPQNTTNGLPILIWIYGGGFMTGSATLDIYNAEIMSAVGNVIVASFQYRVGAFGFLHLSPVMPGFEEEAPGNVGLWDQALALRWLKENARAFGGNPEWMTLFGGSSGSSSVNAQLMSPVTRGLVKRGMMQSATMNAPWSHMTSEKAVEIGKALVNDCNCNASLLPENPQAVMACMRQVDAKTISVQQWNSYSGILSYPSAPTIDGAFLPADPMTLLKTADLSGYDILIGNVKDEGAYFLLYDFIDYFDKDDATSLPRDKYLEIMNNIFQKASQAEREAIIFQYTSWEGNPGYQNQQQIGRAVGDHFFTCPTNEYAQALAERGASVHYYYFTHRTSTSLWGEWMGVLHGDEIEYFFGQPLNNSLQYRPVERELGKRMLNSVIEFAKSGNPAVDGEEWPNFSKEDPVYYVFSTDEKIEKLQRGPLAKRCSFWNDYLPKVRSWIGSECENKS

| Structure (SMILES) | IC50 [1] | Inhibition rate (%) | IC50 (read-out: IC50 ± S.D AChE) | IC50 (10 μM, read-out: IC50 AChE, NA) |
| --- | --- | --- | --- | --- |
| Cc1ccccc1[N+]1=Cc2c(c3ccccc3n2C)CC1.[Br-] [Compound A20] | > 10 µM | 44.3 ± 1.7 j % | – | – |
| Cn1c2ccccc2c2cc[n+](-c3cccc([N+](=O)[O-])c3)cc21.[Br-] [Compound B28, 9-Methyl-2-(3-nitrophenyl)-β-carboline bromide] | > 10 µM | 34.9 ± 1.8 tu % | – | – |
| Cn1c2c(c3ccccc31)CC[N+](c1ccc(C#N)cc1)=C2.[Br-] [Compound A25] | > 10 µM | 15.6 ± 1.8 mnop % | – | – |
| Cn1c2ccccc2c2cc[n+](-c3c(F)cccc3F)cc21.[Br-] [Compound B29, 9-Methyl-2-(2,6-difluorophenyl)-β-carboline bromide] | ~10 µM | 48.5 ± 3.1 pq % | – | – |
| Cn1c2ccccc2c2cc[n+](-c3cc(Cl)cc(Cl)c3)cc21.[Br-] [Compound B31, 9-Methyl-2-(3,5-dichlorophenyl)-β-carboline bromide] | > 10 µM | 18.9 ± 2.5 v % | – | – |
| Cn1c2c(c3ccccc31)CC[N+](c1ccccc1Br)=C2.[Br-] [Compound A8] | > 10 µM | 5.9 ± 1.0 qrs % | – | – |
| Cn1c2c(c3ccccc31)CC[N+](c1ccccc1F)=C2.[Br-] [Compound A2] | > 10 µM | 15.1 ± 2.8 mnop % | – | – |
| Cn1c2ccccc2c2cc[n+](-c3ccccc3O)cc21.[Br-] [Compound B14, 9-Methyl-2-(2-hydroxyhenyl)-β-carboline bromide] | > 10 µM | 23.9 ± 4.3 v % | – | – |
| Cn1c2c(c3ccccc31)CC[N+](c1cccc([N+](=O)[O-])c1)=C2.[Br-] [Compound A28] | > 10 µM | 14.5 ± 3.9 mnop % | – | – |
| Cn1c2ccccc2c2cc[n+](-c3cccc(Br)c3)cc21.[Br-] [Compound B9, 9-Methyl-2-(3-bromophenyl)-β-carboline bromide] | ~10 µM | 48.8 ± 6.6 q % | – | – |
| Cn1c2c(c3ccccc31)CC[N+](c1cccc(Br)c1)=C2.[Br-] [Compound A9] | > 10 µM | 16.2 ± 3.3 mno % | – | – |
| CCn1c2ccccc2c2cc[n+](-c3ccccc3)cc21.[Br-] [Compound B38, 9-Ethyl-2-phenyl-β-carboline bromide] | – | 87.8 ± 1.1 efgh % | 0.76 ± 0.21 µM | – |
| Cc1cccc([N+]2=Cc3c(c4ccccc4n3C)CC2)c1.[Br-] [Compound A21] | > 10 µM | 28.6 ± 1.7 k % | – | – |
| Cn1c2c(c3ccccc31)CC[N+](c1c(F)cccc1F)=C2.[Br-] [Compound A29] | – | −3.3 ± 2.0 uv % | – | > 10 µM |
| [Br-].c1ccc(Cn2c3ccccc3c3cc[n+](-c4ccccc4)cc32)cc1 [Compound B44, 9-Benzyl-2-phenyl-β-carboline bromide] | – | 47.8 ± 2.0 q % | 11.2 ± 2.54 µM | – |
| COc1ccc2c(c1)c1cc[n+](-c3ccccc3)cc1n2C.[Br-] [Compound B34, 6-Methoxy-9-methyl-2-phenyl-β-carboline bromide] | – | 85.7 ± 2.5 ghi % | 0.94 ± 0.23 µM | – |
| Cn1c2cc(Cl)ccc2c2cc[n+](-c3ccccc3)cc21.[Br-] [Compound B37, 7-Chloro-9-methyl-2-phenyl-β-carboline bromide] | – | 89.9 ± 0.7 def % | 0.57 ± 0.08 µM | – |
| COc1ccccc1-[n+]1ccc2c3ccccc3n(C)c2c1.[Br-] [Compound B17, 9-Methyl-2-(2-methoxylphenyl)-β-carboline bromide] | > 10 µM | 41.0 ± 2.9 rs % | – | – |
| CCCCn1c2ccccc2c2cc[n+](-c3ccccc3)cc21.[Br-] [Compound B42, 9-Butyl-2-phenyl-β-carboline bromide] | – | 65.7 ± 0.6 m % | 2.91 ± 0.33 µM | – |
| Cn1c2c(c3ccccc31)CC[N+](c1cccc(F)c1)=C2.[Br-] [Compound A3] | > 10 µM | 22.4 ± 1.1 l % | – | – |

| Structure (SMILES) | IC50 [1] | Inhibition rate (%) | IC50 (read-out: IC50 ± S.D AChE) | IC50 (10 μM, read-out: IC50 AChE, NA) |
| --- | --- | --- | --- | --- |
| Cn1c2ccccc2c2cc[n+](-c3ccccc3I)cc21.[Br-] [Compound B11, 9-Methyl-2-(2-iodohenyl)-β-carboline bromide] | > 10 µM | 43.3 ± 1.8 r % | – | – |
| C1=[N+](c2ccccc2)CCc2c1n(Cc1ccccc1)c1ccccc21.[Br-] [Compound A44] | > 10 µM | 31.2 ± 4.4 ef % | – | – |
| C=CCn1c2ccccc2c2cc[n+](-c3ccccc3)cc21.[Br-] [Compound B41, 9-Allyl-2-phenyl-β-carboline bromide] | – | 78.2 ± 1.6 k % | 1.18 ± 0.3 µM | – |
| CCCn1c2ccccc2c2cc[n+](-c3ccccc3)cc21.[Br-] [Compound B39, 9-Propyl-2-phenyl-β-carboline bromide] | – | 78.8 ± 0.9 jk % | 3.08 ± 0.66 µM | – |
| CC(C)Cn1c2c(c3ccccc31)CC[N+](c1ccccc1)=C2.[Br-] [Compound A43] | > 10 µM | 46.5 ± 1.9 ghi % | – | – |
| CC(C)n1c2ccccc2c2cc[n+](-c3ccccc3)cc21.[Br-] [Compound B40, 9-Iso-propyl-2-phenyl-β-carboline bromide] | – | 86.9 ± 0.8 fgh % | 0.54 ± 0.16 µM | – |
| Cn1c2ccccc2c2cc[n+](-c3ccccc3)cc21.[Br-] [Compound B1, 9-Methyl-2-phenyl-β-carboline bromide] | – | 71.5 ± 0.3 l % | 3.18 ± 0.12 µM | – |
| Cn1c2c(c3ccccc31)CC[N+](c1cc(Cl)cc(Cl)c1)=C2.[Br-] [Compound A31] | – | 0.7 ± 0.5 stu % | – | > 10 µM |
| Cn1c2c(c3ccccc31)CC[N+](c1ccccc1I)=C2.[Br-] [Compound A11] | – | −10.6 ± 3.0 w % | – | > 10 µM |
| Cn1c2c(c3ccccc31)CC[N+](c1cccc(Cl)c1)=C2.[Br-] [Compound A6] | > 10 µM | 19.3 ± 4.0 lm % | – | – |
| Cn1c2c(c3ccccc31)CC[N+](c1ccc(Br)cc1F)=C2.[Br-] [Compound A32] | > 10 µM | 11.1 ± 2.8 opq % | – | – |
| COc1cccc([N+]2=Cc3c(c4ccccc4n3C)CC2)c1.[Br-] [Compound A18] | > 10 µM | 4.7 ± 1.5 rst % | – | – |
| Br.c1ccc(-n2ccc3c4ccccc4nc-3c2)cc1 [Compound B46, 2-Phenyl-β-carboline bromide] | – | 43.0 ± 1.8 r % | 18 ± 2.42 µM | – |
| Cn1c2c(c3ccccc31)CC[N+](c1cccc(C(F)(F)F)c1)=C2.[Br-] [Compound A26] | > 10 µM | 12.8 ± 2.1 kln % | – | – |
| Cn1c2ccccc2c2cc[n+](-c3ccccc3Br)cc21.[Br-] [Compound B8, 9-Methyl-2-(2-bromophenyl)-β-carboline bromide] | > 10 µM | 32.1 ± 0.9 u % | – | – |
| Cn1c2c(c3ccccc31)CC[N+](c1ccccc1O)=C2.[Br-] [Compound A14] | > 10 µM | 23.2 ± 2.5 kl % | – | – |
| Cn1c2c(c3ccccc31)CC[N+](c1cccc(I)c1)=C2.[Br-] [Compound A12] | > 10 µM | 10.1 ± 2.8 pqr % | – | – |
| Cn1c2c(c3ccccc31)CC[N+](c1ccc(Cl)cc1Cl)=C2.[Br-] [Compound A30] | – | −0.5 ± 2.4 tu % | – | > 10 µM |
| Cn1c2ccccc2c2cc[n+](-c3ccc(C#N)cc3)cc21.[Br-] [Compound B25, 9-Methyl-2-(4-cyanophenyl)-β-carboline bromide] | > 10 µM | 36.8 ± 0.8 t % | – | – |
